Assay results taken from patent publication US10736965B2, “Risperidone biodegradable implant” (The Trustees of the University of Pennsylvania, priority 2004, dated 2020).
Converted amounts (≈) assume the structure as drawn. Like-named read-outs stand apart in the source and are kept apart here. Values belong to the compound of their own block, whether it stands above or below them.

Experiments:
Drug solubility in water = format: physicochemical; details: measured after 14 days, distilled water, 21° C.; for solubility at 14 days: thermodynamic from solid
From the text: 1-mL aliquots were removed at fixed time intervals and analyzed by UV Spectroscopy to determine maximum saturation concentration.

[1] = In vitro drug release assay from 50:50 PLGA pellets, fit to equation (4); format: physicochemical; details: for k (degradation reaction rate): fit of FIG. 10 data to equation (4), 50:50 PLGA, 20% drug load; for Onset of drug release (induction time): 50:50 PLGA pellets, PBS 37° C.; for k, fit parameter: FIG. 11 legend
Method: 400 mg of 50:50 PLGA and 100 mg of drug were solvent cast to obtain a 20% by mass drug-load. Polymer and drug were dissolved in 45 milliliters (mL) acetone (Fisher Scientific, Inc.) and vortexed, then poured into an evaporation dish and placed in a vacuum oven at 40° C. under vacuum (3 inches Hg) with trace airflow. After seven days, dishes were removed from the oven. Evaporation residue was a thin film mixture of polymer and drug with homogenous appearance. The film was carefully weighed to confirm complete removal of solvent and pressed into four uniform disk-shaped pellets with 1 mm thickness and […], using a Teflon®-coated pellet press set at 25 (kilo-pounds) klb and 60° C. Pellets were carefully weighed and measured to determine densities. Negative control pellets with a 0% drug load were fabricated in the same manner, using 500 mg polymer and no drug.
Assays were performed in triplicate using three of each set of four uniform pellets. Each pellet was added to an amber-glass, capped jar (Wheaton, Inc.) containing 500 mL of a PBS solution and subjected to moderate shaking in the dark, at 37° C. 1-mL aliquots of were analyzed by UV Spectroscopy at fixed time intervals and. Positive control jars contained PBS and 10 mg of drug, the expected maximum release for a 20% drug-loaded pellet with a mass of 50 mg, and were also used to determine stability of each drug in saline solution over the course of the experiment.
The degradation reaction is likely to be a […] reaction between the polymer and water, and is thus proportional to the local concentration of both species. However, since the polymer comprises the majority of the pellet, its concentration is fixed everywhere. Thus, the degradation reaction is proportional to the local concentration of water (a function of the diffusivity) times a constant. Defining the diffusion coefficient of water into the polymer pellet as D, the diffusion/reaction equation for water is written as (1): […]
The model described by Equation (4) fit well the drug release data shown in FIG. 10 for all six drugs tested, with values of D and k as listed in Table 2 (the curves for haloperidol and aspirin are depicted in FIG. 11). This is notable because the drugs tested are diverse; e.g. haloperidol and aspirin are very different. The deviations seen at late time points arose from the finite size of the pellets.

in vivo = details: rabbit
From the text: The concentration of drug as a function of time is a complex function. The error function can be approximated as erf(x)˜1−e^−7x/4, yielding equation 10 for the drug concentration. a1 is a constant equal to the total drug content of the implant, variable a2 is a constant equal to the metabolic rate, variable a3 reflects diffusion of drug from the implant and variable a4 reflects polymer degradation and influences total release interval.

[2] = format: physicochemical
Method: To evaluate the long-term stability of risperidone in physiological solution, 10 mg Risperidone was dissolved in 100 μl of acetonitrile for subsequent dissolution in 1,000 ml of PBS (0.9% NaCl, 0.01 M NaOH, 0.01 M NaH2PO4, pH 7.0) to yield a final solution of 10,000 nanograms (ng)/ml. The solution was shaken at 40 revolutions per minute in a light-safe amber bottle at 37° C. Drug concentration of a 1-ml sample was measured three times per week by UV spectroscopy (Amersham Biosciences, Buckinghamshire, UK). […] Studies were replicated using UV spectrophotometry and HPLC (FIG. 5).

[3] = first 77 days

Water solubility (Drug solubility in water): 4990 µg/mL
k (degradation reaction rate) [1]: 0.06 day⁻¹
SMILES: CC(=O)Oc1ccccc1C(=O)O [Aspirin, 2-acetyloxybenzoic acid]

solubility at 14 days (Drug solubility in water): 500 µg/mL (≈ 1440 µM)
k (degradation reaction rate) [1]: 0.33 day⁻¹
SMILES: CC12CCC(=O)C=C1CCC1C2C(O)CC2(C)C(C(=O)CO)CCC12 (stereo not drawn) [Corticosterone, 11-hydroxy-17-(2-hydroxyacetyl)-10,13-dimethyl-1,2,6,7,8,9,10,11,12,13,14,15,16,17-tetradecahydrocyclopenta[a]phenanthren-3-one]

solubility at 14 days (Drug solubility in water): 130 µg/mL (≈ 346 µM)
Onset of drug release (induction time) [1]: exhibited an induction time
k (degradation reaction rate) [1]: 0.07 day⁻¹
Coefficient τ (in vivo): ≈ 0.027
half-life (in vivo): ~2.17 h
SMILES: O=C(CCCN1CCC(O)(c2ccc(Cl)cc2)CC1)c1ccc(F)cc1 [Haloperidol, 4-[4-(4-chlorophenyl)-4-hydroxy-1-piperidyl]-1-(4-fluorophenyl)-butan-1-one]
k, fit parameter [1]: approximately 0.1 1/days

solubility at 14 days (Drug solubility in water): 140 µg/mL (≈ 316 µM)
k (degradation reaction rate) [1]: 0.06 day⁻¹
SMILES: CN1CCN(CCC=C2c3ccccc3Sc3ccc(S(=O)(=O)N(C)C)cc32)CC1 [Thiothixene, N,N-dimethyl-9-[3-(4-methylpiperazin-1-yl)propylidene]thioxanthene-2-sulfonamid]
Onset of drug release (induction time) [1]: released as soon as the experiment begins

Second part, the compound before the results:

SMILES: NS(=O)(=O)c1cc2c(cc1Cl)NCNS2(=O)=O [HCTZ, 9-chloro-5,5-dioxo-5λ6-thia-2,4-diazabicyclo[4.4.0]deca-6,8,10-triene-8-sulfonamide]
k (degradation reaction rate) [1]: 0.26 day⁻¹

SMILES: CC(C)Cc1ccc(C(C)C(=O)O)cc1 (stereo not drawn) [Ibuprofen, 2-[4-(2-methylpropyl)phenyl]propanoic acid]
solubility at 14 days (Drug solubility in water): 470 µg/mL (≈ 2280 µM)
k, fit parameter [1]: approximately 0.164 1/days
k (degradation reaction rate) [1]: 0.16 day⁻¹

SMILES: Cc1nc2n(c(=O)c1CCN1CCC(c3noc4cc(F)ccc34)CC1)CCCC2 [Risperidone]
Stability in physiological solution [2]: stable
Change in concentration of drug per day ([2]; PBS pH 7.0, 37° C.): 0.004 % per day
Change in concentration of drug ([2]; over 343 days, PBS pH 7.0, 37° C., UV spectroscopy): 1.4%
Daily change in drug mass ([3]; pH 4.4): 0.00%
Daily change in drug mass ([3]; pH 5.4): 0.10%
Daily change in drug mass ([3]; pH 6.4): 0.04%
Daily change in drug mass ([3]; pH 7.4): 0.06%
